According to patent US8952024B2, “Herbicidal pyrimidone derivatives” (E I du Pont de Nemours and Company, priority 2009, dated 2015):
Read-outs that look alike come from different tables or passages of the source.

Legend:
Type in all cases: in vivo
[1] = tested on: winter barley (Hordeum vulgare); assay: Test B postemergence plant response; conditions: Postemergence
From the text: (§1) At the same time, plants selected from these crop and weed species and also winter barley (Hordeum vulgare), canarygrass (Phalaris minor), chickweed (Stellaria media) and windgrass (Apera spica-venti) were planted in pots containing Redi-Earth® planting medium (Scotts Company, 14111 Scottslawn Road, Marysville, Ohio 43041) comprising spaghnum peat moss, vermiculite, wetting agent and starter nutrients and treated with postemergence applications of some of the test chemicals formulated in the same manner. Plants ranged in height from 2 to 18 cm (1- to 4-leaf stage) for postemergence treatments.
(§2) Treated plants and controls were maintained in a greenhouse for 13 to 15 days, after which time all treated plants were visually evaluated and compared to controls. Plant response ratings, summarized in Table B, are based on a scale of 0 to 100 where 0 is no effect and 100 is complete control. A dash (-) response means no test result.

[2] = tested on: windgrass (Apera spica-venti); assay: Test B postemergence plant response; conditions: Postemergence
From the text: as §1, §2

[3] = tested on: chickweed (Stellaria media); assay: Test B postemergence plant response; conditions: Postemergence
From the text: as §1, §2

[4] = tested on: canarygrass (Phalaris minor); assay: Test B postemergence plant response; conditions: Postemergence
From the text: as §1, §2

[5] = tested on: morningglory (Ipomoea spp.); assay: Test A pre-/postemergence plant response; conditions: Ipomoea, 240 h; for pest or weed control at 125 g/ha: 125 g ai/ha; for pest or weed control at 500 g/ha: 500 g ai/ha
Procedure, shortened: (§3)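 Injury scores (0, no effect; 100, complete control) come from visual comparison with untreated controls roughly ten days post-treatment. Test chemicals in a surfactant-containing non-phytotoxic solvent were applied as a directed soil spray preemergence and to one- to two-leaf seedlings postemergence.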

[6] = tested on: giant foxtail (Setaria faberii); assay: Test A pre-/postemergence plant response; conditions: Setaria faberi, 240 h; for pest or weed control at 125 g/ha: 125 g ai/ha; for pest or weed control at 500 g/ha: 500 g ai/ha
Procedure, shortened: as §3

corn (Zea mays) = assay: Test A pre-/postemergence plant response; conditions: Zea mays, 240 h; for Corn plant response rating (crop injury, 0 = no effect, 100 = complete kill) at 500 g/ha: 500 g ai/ha
Procedure, shortened: as §3

[7] = tested on: barnyardgrass (Echinochloa crus-galli); assay: Test A pre-/postemergence plant response; conditions: Echinochloa crus-galli, 240 h; for pest or weed control at 125 g/ha: 125 g ai/ha; for pest or weed control at 500 g/ha: 500 g ai/ha
Procedure, shortened: as §3

[8] = tested on: pigweed (Amaranthus retroflexus); assay: Test A pre-/postemergence plant response; conditions: Amaranthus retroflexus, 240 h; for pest or weed control at 125 g/ha: 125 g ai/ha; for pest or weed control at 500 g/ha: 500 g ai/ha
Procedure, shortened: as §3

[9] = tested on: velvetleaf (Abutilon theophrasti); assay: Test A pre-/postemergence plant response; conditions: Abutilon theophrasti, 240 h; for pest or weed control at 125 g/ha: 125 g ai/ha; for pest or weed control at 500 g/ha: 500 g ai/ha
Procedure, shortened: as §3

[10] = tested on: wheat (Triticum aestivum); assay: Test A pre-/postemergence plant response; conditions: Triticum aestivum, 240 h; for plant injury at 125 g/ha: 125 g ai/ha; for plant injury at 500 g/ha: 500 g ai/ha
Procedure, shortened: as §3

[11] = tested on: large crabgrass (Digitaria sanguinalis); assay: Test A pre-/postemergence plant response; conditions: Digitaria sanguinalis, 240 h; for pest or weed control at 125 g/ha: 125 g ai/ha; for pest or weed control at 500 g/ha: 500 g ai/ha
Procedure, shortened: as §3

Compound COc1ccc(-n2c(-c3ccccc3)ncc(C(=O)C3=C(O)CCCC3=O)c2=O)cc1 [Compound 4, 5-[(2-hydroxy-6-oxo-cyclohexen-1-yl)carbonyl]-3-(4-methoxyphenyl)-2-phenyl-4(3H)-pyrimidinone] has a plant injury at 31 g/ha ([1]; Hordeum vulgare, post-emergence, 31 g ai/ha, scale 0 to 100 (0 no effect, 100 complete control), read-out: Plant response rating, Barley) of 0%, a plant injury at 62 g/ha ([1]; Hordeum vulgare, post-emergence, 62 g ai/ha, scale 0 (no effect) to 100 (complete control), 13 to 15 days, read-out: Plant response rating, Barley) of 0% and a plant injury at 125 g/ha ([1]; Hordeum vulgare, post-emergence, 125 g ai/ha, scale 0 to 100 (0 no effect, 100 complete control), 13 to 15 days, read-out: Plant response rating, Barley) of 0%. The “Barley plant response rating” value ([1]; 250 g ai/ha, scale 0 to 100) was 10, the pest or weed control at 31 g/ha ([2]; Apera spica-venti, post-emergence, 360 h, 31 g ai/ha, scale 0 to 100 (0 no effect, 100 complete control), read-out: Plant response rating, Windgrass) was 50% and the pest or weed control at 62 g/ha ([2]; Apera spica-venti, post-emergence, 360 h, 62 g ai/ha, scale 0 (no effect) to 100 (complete control), 13 to 15 days, read-out: Plant response rating, Windgrass) was 55%. For the same compound, the pest or weed control at 125 g/ha ([2]; Apera spica-venti, post-emergence, 360 h, 125 g ai/ha, visual rating after 13 to 15 days, scale 0 (no effect) to 100 (complete control)) was 60%, the “Windgrass plant response rating” value ([2]; 250 g ai/ha, scale 0 to 100) was 75 and the “Chickweed plant response rating” value ([3]; 250 g ai/ha, scale 0 to 100) was 100. The pest or weed control at 31 g/ha ([3]; Stellaria media, post-emergence, 360 h, 31 g ai/ha, scale 0 to 100 (0 no effect, 100 complete control), read-out: Plant response rating, Chickweed) was 100%, the pest or weed control at 62 g/ha ([3]; Stellaria media, post-emergence, 360 h, 62 g ai/ha, scale 0 (no effect) to 100 (complete control), 13 to 15 days, read-out: Plant response rating, Chickweed) was 100% and the pest or weed control at 125 g/ha ([3]; Stellaria media, post-emergence, 360 h, 125 g ai/ha, visual rating after 13 to 15 days, scale 0 (no effect) to 100 (complete control)) was 100%. For the same compound, the pest or weed control at 31 g/ha ([4]; Phalaris minor, post-emergence, 360 h, 31 g ai/ha, scale 0 to 100 (0 no effect, 100 complete control), read-out: Plant response rating, Canarygrass) was 10%, the pest or weed control at 62 g/ha ([4]; Phalaris minor, post-emergence, 360 h, 62 g ai/ha, scale 0 (no effect) to 100 (complete control), 13 to 15 days, read-out: Plant response rating, Canarygrass) was 20% and the pest or weed control at 125 g/ha ([4]; Phalaris minor, post-emergence, 360 h, 125 g ai/ha, visual rating after 13 to 15 days, scale 0 (no effect) to 100 (complete control)) was 75%. The “Canarygrass plant response rating” value ([4]; 250 g ai/ha, scale 0 to 100) was 80, the pest or weed control at 125 g/ha ([5]; post-emergence, Postemergence, visual injury, 0 to 100 scale (0 no effect, 100 complete control), approx. ten days, read-out: Morningglory plant response rating) was 100% and the pest or weed control at 500 g/ha ([5]; post-emergence, Postemergence, 0 to 100 scale, 0 = no effect, 100 = complete control, approx. ten days, read-out: Plant response rating, Morningglory) was 100%. For the same compound, the pest or weed control at 125 g/ha ([5]; pre-emergence, Preemergence, 0 to 100 scale, 0 = no effect, 100 = complete control, read-out: Plant response rating, Morningglory) was 0%, the pest or weed control at 500 g/ha ([5]; pre-emergence, Preemergence, visual injury, 0 to 100 scale (0 no effect, 100 complete control), approx. ten days, read-out: Plant response rating, Morningglory) was 70% and the pest or weed control at 125 g/ha ([6]; post-emergence, Postemergence, visual injury, 0 to 100 scale (0 no effect, 100 complete control), approx. ten days, read-out: Foxtail, Giant plant response rating) was 80%. The pest or weed control at 500 g/ha ([6]; post-emergence, Postemergence, 0 to 100 scale, 0 = no effect, 100 = complete control, approx. ten days, read-out: Plant response rating, Foxtail, Giant) was 90%, the pest or weed control at 125 g/ha ([6]; pre-emergence, Preemergence, 0 to 100 scale, 0 = no effect, 100 = complete control, read-out: Plant response rating, Foxtail, Giant) was 10% and the pest or weed control at 500 g/ha ([6]; pre-emergence, Preemergence, visual injury, 0 to 100 scale (0 no effect, 100 complete control), approx. ten days, read-out: Plant response rating, Foxtail, Giant) was 70%. The plant injury at 125 g/ha (corn (Zea mays); post-emergence, Postemergence, 125 g ai/ha, visual injury, 0 to 100 scale (0 no effect, 100 complete control), approx. ten days, read-out: Corn plant response rating) was 10%, the Corn plant response rating (crop injury, 0 = no effect, 100 = complete kill) at 500 g/ha (corn (Zea mays); post-emergence, Postemergence, 0 to 100 scale, 0 = no effect, 100 = complete control, approx. ten days) was 50% and the Corn plant response rating (crop injury, 0 = no effect, 100 = complete kill) at 125 g/ha (corn (Zea mays); pre-emergence, Preemergence, 125 g ai/ha, 0 to 100 scale, 0 = no effect, 100 = complete control) was 0%. The Corn plant response rating (crop injury, 0 = no effect, 100 = complete kill) at 500 g/ha (corn (Zea mays); pre-emergence, Preemergence, visual injury, 0 to 100 scale (0 no effect, 100 complete control), approx. ten days) was 20%, the pest or weed control at 125 g/ha ([7]; post-emergence, Postemergence, visual injury, 0 to 100 scale (0 no effect, 100 complete control), approx. ten days, read-out: Barnyardgrass plant response rating) was 90% and the pest or weed control at 500 g/ha ([7]; post-emergence, Postemergence, 0 to 100 scale, 0 = no effect, 100 = complete control, approx. ten days, read-out: Plant response rating, Barnyardgrass) was 100%. It also gave a pest or weed control at 125 g/ha ([7]; pre-emergence, Preemergence, 0 to 100 scale, 0 = no effect, 100 = complete control, read-out: Plant response rating, Barnyardgrass) of 10%, a pest or weed control at 500 g/ha ([7]; pre-emergence, Preemergence, visual injury, 0 to 100 scale (0 no effect, 100 complete control), approx. ten days, read-out: Plant response rating, Barnyardgrass) of 70% and a pest or weed control at 125 g/ha ([8]; post-emergence, Postemergence, visual injury, 0 to 100 scale (0 no effect, 100 complete control), approx. ten days, read-out: Pigweed plant response rating) of 100%. It also gave a pest or weed control at 500 g/ha ([8]; post-emergence, Postemergence, 0 to 100 scale, 0 = no effect, 100 = complete control, approx. ten days, read-out: Plant response rating, Pigweed) of 100%, a pest or weed control at 125 g/ha ([8]; pre-emergence, Preemergence, 0 to 100 scale, 0 = no effect, 100 = complete control, read-out: Plant response rating, Pigweed) of 90% and a pest or weed control at 500 g/ha ([8]; pre-emergence, Preemergence, visual injury, 0 to 100 scale (0 no effect, 100 complete control), approx. ten days, read-out: Plant response rating, Pigweed) of 90%. The pest or weed control at 125 g/ha ([9]; post-emergence, Postemergence, visual injury, 0 to 100 scale (0 no effect, 100 complete control), approx. ten days, read-out: Velvetleaf plant response rating) was 100%, the pest or weed control at 500 g/ha ([9]; post-emergence, Postemergence, 0 to 100 scale, 0 = no effect, 100 = complete control, approx. ten days, read-out: Plant response rating, Velvetleaf) was 100% and the pest or weed control at 125 g/ha ([9]; pre-emergence, Preemergence, 0 to 100 scale, 0 = no effect, 100 = complete control, read-out: Plant response rating, Velvetleaf) was 40%. It also gave a pest or weed control at 500 g/ha ([9]; pre-emergence, Preemergence, visual injury, 0 to 100 scale (0 no effect, 100 complete control), approx. ten days, read-out: Plant response rating, Velvetleaf) of 100%, a plant injury at 125 g/ha ([10]; post-emergence, Postemergence, visual injury, 0 to 100 scale (0 no effect, 100 complete control), approx. ten days, read-out: Wheat plant response rating) of 0% and a plant injury at 500 g/ha ([10]; post-emergence, Postemergence, 0 to 100 scale, 0 = no effect, 100 = complete control, approx. ten days, read-out: Plant response rating, Wheat) of 60%. The plant injury at 125 g/ha ([10]; pre-emergence, Preemergence, 0 to 100 scale, 0 = no effect, 100 = complete control, read-out: Plant response rating, Wheat) was 0%, the plant injury at 500 g/ha ([10]; pre-emergence, Preemergence, visual injury, 0 to 100 scale (0 no effect, 100 complete control), approx. ten days, read-out: Plant response rating, Wheat) was 20% and the pest or weed control at 125 g/ha ([11]; post-emergence, Postemergence, visual injury, 0 to 100 scale (0 no effect, 100 complete control), approx. ten days, read-out: Crabgrass, Large plant response rating) was 70%. For the same compound, the pest or weed control at 500 g/ha ([11]; post-emergence, Postemergence, 0 to 100 scale, 0 = no effect, 100 = complete control, approx. ten days, read-out: Plant response rating, Crabgrass, Large) was 90%, the pest or weed control at 125 g/ha ([11]; pre-emergence, Preemergence, 0 to 100 scale, 0 = no effect, 100 = complete control, read-out: Plant response rating, Crabgrass, Large) was 20% and the pest or weed control at 500 g/ha ([11]; pre-emergence, Preemergence, visual injury, 0 to 100 scale (0 no effect, 100 complete control), approx. ten days, read-out: Plant response rating, Crabgrass, Large) was 90%.
